Literature values, collected in patent publication US20110252694A1, “COMPOSITIONS FOR DRIP FUMIGATION” (priority 2010, published 2011).

Experiments:
[1] = test system: weeds, nematodes, and soil pathogens; details: compared with methyl bromide
plant = details: when used in effective concentrations

CI [Methyl Iodide, methyl iodide]
combating weeds, nematodes, and soil pathogens [1]: equal to or better than methyl bromide | plant toxicity (plant): does not result in plant toxicity
